Source: US6770738B1, “Higher order structure and binding of peptide nucleic acids” (ISIS Pharmaceuticals, Inc., priority 1992, dated 2004)

Key:
[1] = system: pTlO plasmid (dA10/dT10 insert) and corresponding plasmids linearized with CfrlOI; test: Site-specific S1 nuclease digestion of linearized plasmid complexed with PNA; format: biochemical; details: 145 units S1 nuclease, room temperature; each PNA with its corresponding plasmid
Description: PNA H-T10-LysNH2 (SEQ ID NO:2) was synthesized as described in Example 1. A pTlO plasmid was prepared from the pUC19 plasmid by inserting the dA10/dT10 (SEQ ID NO:3) sequence into the BamHl site of the polylinker as per the method of Egholm, N et al., J.A.C.S. 1992 114:1895-1897. The pTlO plasmid was linearized with CfrlOI restriction enzyme in the unique site. To form complex with the PNA, about0.1 μg of the linearized plasmid was incubated with 2 o.u./ml of PNA in 3 μl of the TE buffer (10 mM Tris-HCl; 1 mM EDTA, pH 7.4) at 37° C. To perform the S1 nuclease reaction, 10 μl of Na-Acetate buffer (33 mM NaAc; 50 mM NaCl; 10 mM ZnSO4; 0.5% of glycerol, pH 4.6) and 145 units of S1 nuclease (Sigma) were added and incubated for various time periods at room temperature. The reaction was terminated by adding 1 μl of 0.5 M EDTA and cooling to −20° C. Electrophoresis was performed in 1% agarose gel in the TBE buffer with subsequent staining with ethidium bromide. The results of this example are shown in FIG. 1 wherein the size of the markers are shown as are the incubation time periods. In FIG. 8 Lane 1: control—preincubation of DNA with PNA was performed under conditions unfavorable for complex formation (200 mM of NaCl). Lane 2: the reference band obtained by digestion with BamHI restriction enzyme. Lane 3: reference bands obtained by the digestion with Bgll restriction enzyme. […]

[2] = system: pA98 plasmid relaxed circles (rcDNA); test: Unwinding of closed circular DNA with PNA; format: binding
Description: Relaxed circular DNA was prepared by treating ordinary supercoiled plasmid DNA with an extract containing DNA topoisomerase I, as described by V. I. Lyamichev, et. al., J. Biomolec. Struct. Dynamics, 3, 327-338 (1985). DNA-PNA complexes were obtained by incubation of 1-2 μg of DNA in 5-20 μL TE with 0.4 optical units./mL of PNA for 4 hours at 20-22° C. This corresponded to about 10 times molar excess of PNA to its potential binding sites. Agarose (1.5%) gel electrophoresis was performed in the TAE buffer containing 1 μg/mL of chloroquine at 10° C. for 15 hours at 1.5 V/cm. Tw—dimensional gel electrophoresis was preformed in the first direction (from top to bottom) in the TAE buffer and in the second direction (from left to right) in the same buffer with addition of 1 μg/mL of chloroquine.
In this example, the efficiency of PNA T10 incorporating into the DNA duplex and displacing the DNA T-strand in solution was shown by unwinding of closed circular DNA by PNA. The pA98 plasaid (Example 16) was prepared in the form of relaxed circles (rcDNA). It was expected that complexing with PHA would unwind about 10 turns of the DNA duplex. Because of topological constraints (the two strands in rcDNA were closed and therefore topologically linked), this unwinding would make the rcDNA molecules behave as if they were positively supercoiled by 10 superturns. […]

[3] = system: A98/T98 insert of pA98 plasmid; test: Electron microscopy of PNA-DNA complex; format: binding
Description: A pA98 plasmid containing an A98/T98 (SEQ ID NO:42) insert in the PstI site of the polylinker of a pUC 19 plasmid was used. 0.1 μg of the pA98 plasmid linearized by the Cfr1OI I restriction enzyme was incubated with 0.15 μg of PNA H-T10-LysNH2 (SEQ ID NO:2) at 37 °C. for 3 hours in 10 μL of the TE buffer (10 mM of Tris-HCl, 1 mM of Na3EDTA, pH 8.0). The complex was diluted with buffer containing 10 mM of Tris-HCl, 10 mM of NaCl, pH 7.5 to the final DNA concentration of 0.2-0.5 μg/mL and absorbed to the surface of glow discharged in tripropylamine carbon grid for 2 minutes as described in Duochet, J., Ultrastruct. Res., 1971 35, 147-167. The grid was stained in 0.1-0.5 % water solution of uranyl acetate for 10-15 sec and dried. The sample was shadowed with Pt/C (95/5) and studied in a Philips 400 electron microscope at accelerating voltage of 40 kV. The length of the DNA molecules were measured and a histogram was plotted as described by A. V. Kurakin in Micron Microscopica Acta, 22,213-221 (1991). The length of unwound region was measured by its thicker strand, for which the number of base pairs per unit length was assumed to be the same as for the DNA duplex. For analysis by use of a histogram, the molecules were oriented in such a manner that the left boundary of the loop was closer to the end of the molecule.

Substance: H-T10LysNH2 [PNA H-T10-LysNH2]
- S1 nuclease cutting of linearized plasmid complexed with PNA [1]: a significant fraction of DNA was cut
- salt concentration tolerated by complex formed at low salt ([2]; NaCl): at least 500 mM
- turns of the double helix released upon binding of PNA ([2]; TE buffer, two-dimensional gel electrophoresis): 8-10 turns
- strand displacement loop at full occupancy of the target [3]: 90-100 bases
- average size of the loop ([3]; standard error 17 bp): 114 bp
